Source: PMC6222509, “Dibasic Derivatives of Phenylcarbamic Acid against Mycobacterial Strains: Old Drugs and New Tricks?” (Molecules : A Journal of Synthetic Chemistry and Natural …, 2018)
In brackets after ≈: the same amount, converted by molar mass. Where two headings read alike, the source gives them in different places.

What was measured:
[1] = test system: M. avium CNCTC My 330/80 (identical with ATCC 25291; MA 330/80); experiment: in vitro antimycobacterial MIC, dilution micromethod in Šula's semisynthetic medium; format: cell-based, Mycobacterium avium
[2] = surface tension, drop count method, Traube stalagmometer; format: physicochemical; conditions: aqueous solution c = 2.0 × 10^−3 M, 21 °C; water γ = 0.07259 N/m
Procedure: Surface tension (relative surface activity; γ) of aqueous solutions of the compounds 1a–p (c = 2.0 × 10^−3 M) was determined by a drop count technique using a Traube stalagmometer. All evaluated substances were able to decrease surface tension of water (γ = 0.07259 N/m) at 21 °C.
Surface tension (relative surface activity; γ) of the derivatives 1a–p was determined by a drop count method using a glassy Traube stalagmometer (Kavalier Glass, Prague, Czech Republic). Number of drops of compounds’ and reference solutions were counted between upper and lower marks of the stalagmometer. Aqueous solutions of the molecules 1a–p were prepared with distilled, deionized water (c = 2.0 × 10^−3 M). […] The drops were allowed to form at constant temperature 21 °C. The experimental procedure was described in a paper. Current measurements were done in six replicates and average γ values (in N/m units) were reported (Table 1).

[3] = test system: M. smegmatis ATCC 700084 (MS); experiment: in vitro antimycobacterial MIC, broth dilution micromethod in Middlebrook 7H9; format: cell-based, Mycobacterium smegmatis; conditions: Mycolicibacterium smegmatis, ATCC700084, 72 h
[4] = lipophilicity by isocratic RP-HPLC (log k, k, log kw, S); format: physicochemical; conditions: for log kw: extrapolated to 100% water from log k versus ϕM; for S (slope): slope of log k versus ϕM regression
Source text: Octadecyl-functionalized silica gel was currently used as a stationary phase (SPh) and a […] of two solvents at different volume ratios modified retention properties of the SPh. Liquid binary mixtures of methanol (MeOH) with water were employed as mobile phases (MPhs) in the isocratic RP-HPLC. The MeOH modifier was preferred because of similarity of both observed and extrapolated lipophilicity parameters with the ones determined in the octan-1-ol/water partition system, considering also sensitivity to H-bond donor properties of investigated compounds [41].
The modifier was applied in different volume concentrations, which varied from […] (v/v) with 5% increments. This interval was chosen due to very high lipophilicity of investigated salts. Practically, lower volume concentration of MeOH, i.e., less than 85% (v/v) in used MPhs, caused uncertainty of retention times (tr) due to notable peaks broadening, especially within subsets 1i–l and 1m–p. […] The highest tr parameters were found for the molecules 1k (tr = 47.108 min) and 1l (tr = 70.012 min) in the MPh containing 85% proportion (v/v) of MeOH (Table 2).
According to the authors’ opinions based on systematic scientific literature survey, a current research paper was the first, which aimed the log kw parameters of 2-/3-alkoxyphenylcarbamic acid derivatives containing two centers of protonation. The log kw values were extrapolated from intercepts of a relationship between log k and volume fraction of the MPh modifier (ϕM) using the Snyder–Soczewiński linear solvent strength model. The relationship was justified by R > 0.9900, Adj. R^2 > 0.9750 as well as F > 180.00 for calculation of particular log kw parameters (Table 3).
The HPLC separation module Waters e2695 equipped with a Waters 2996 PDA Detector (Waters Corp., Milford, MA, USA) and chromatographic column Symmetry C18 × 5 μm, 4.6 × 250 mm, Part No. W21751W016 (Waters Corp.) were used for estimation of lipophilic properties of the compounds 1a–p at 21 °C.
Isocratic elution was carried out using mobile phases consisting of methanol p.a. (MeOH; Honeywell, Paris, France) and purified water in various volume ratios (80:20, 85:15, 90:10, 95:5 (v/v) and pure MeOH, respectively). Distilled water (CentralChem, Bratislava, Slovak Republic) was purified by the Aquinity2 P10 ultra-pure water system for production of ultra-pure water with an integrated 10 L permeate tank (membraPure, Hennigsdorf, Germany).
Total flow of the column was 1.0 mL/min, injection volume was 4 μL and column temperature was set to 40 °C. The detection wavelengths varying from 236 nm to 238 nm were chosen for current experimental procedures.
Lipophilicity of the compounds 1a–p was determined by reversed-phase high-performance liquid chromatography (RP-HPLC). Methanol (MeOH)/water mobile phases with varying volume ratio of the organic modifier and water (80:20, 85:15, 90:10, 95:5 (v/v) and pure MeOH, respectively) were chosen.
A methanolic solution of potassium iodine was used for dead time (td) determination. Retention factors (capacity factors; k) were calculated according to Equation (17):k = (tr− td)/td(17) where tr was retention time of a solute (in min), the td parameter denoted dead time of potassium iodine, an unretained analyte (in min).
The observed retention (tr) and dead (td) times were means of three independent determinations. Average td values of potassium iodine in used MPhs were as follows: 2.237 min (MeOH/water ratio (v/v) was 80:20), 2.245 min (85:15), 2.245 min (90:10), 2.228 min (95:5) and 2.210 min (pure MeOH), respectively. […]

[5] = test system: M. marinum CAMP 5644 (MM); experiment: in vitro antimycobacterial MIC, broth dilution micromethod in Middlebrook 7H9; format: cell-based, Mycobacterium marinum
[6] = Mycobacterium avium, ATCC25291, 336 h, 14-day cultivation, read-out: MIC MA 330/80 14-d
[7] = Mycobacterium avium, ATCC25291, 504 h, 21-day cultivation, read-out: MIC MA 330/80 21-d
[8] = 3-day cultivation, 37 °C, read-out: MIC MS 3-d
[9] = mobile phase MeOH/water 80:20 (v/v)
[10] = mobile phase MeOH/water 85:15 (v/v)
[11] = mobile phase MeOH/water 90:10 (v/v)
[12] = mobile phase MeOH/water 95:5 (v/v)
[13] = Mycobacterium marinum, 504 h, read-out: MIC MM 21-d, 21-day cultivation, 28 °C
[14] = read-out: MIC MS 3-d, 3-day cultivation, 37 °C
[15] = Mycobacterium marinum, 504 h, 21-day cultivation, 28 °C, read-out: MIC MM 21-d

SMILES | MIC [1, 6] | MIC [1, 7] | surface tension γ (relative surface activity) [2] | MIC [3, 8] | log kw [4] | k (retention factor) [4, 9] | log k [4, 9] | k (retention factor) [4, 10] | log k [4, 10] | k (retention factor) [4, 11] | log k [4, 11] | k (retention factor) [4, 12] | log k [4, 12] | k (retention factor) ([4]; mobile phase pure MeOH) | log k ([4]; mobile phase pure MeOH) | S (slope) [4] | MIC [5, 13] | MIC [3, 14] | MIC [5, 15] | also measured
CCCCOc1cccc(NC(=O)OC(CN(CCC)CCC)CN2CCCCCC2)c1 (centres unmarked) [1m] | 16 µM (≈ 7.16 µg/mL) | 32 µM (≈ 14.3 µg/mL) | 0.06298 N/m | 30.7 µM (≈ 13.7 µg/mL) | 4.7099 | 6.0325 | 0.7805 | 3.1060 | 0.4922 | 1.8599 | 0.2695 | 1.1026 | 0.0424 | 0.5922 | −0.2275 | 4.9316 | 15.4 µM (≈ 6.89 µg/mL) |  |  | 
CCCCOc1ccccc1NC(=O)OC(CN(CCC)CCC)CN1CCCC1 (centres unmarked) [1a] | 125 µM (≈ 52.5 µg/mL) | 125 µM (≈ 52.5 µg/mL) | 0.06464 N/m |  | 3.7688 | 5.2060 | 0.7165 | 3.7636 | 0.5756 | 2.4877 | 0.3958 | 1.5878 | 0.2008 | 0.9114 | −0.0403 | 3.7768 |  | 213 µM (≈ 89.4 µg/mL) | 106 µM (≈ 44.5 µg/mL) | 
CCCCOc1cccc(NC(=O)OC(CN(CCC)CCC)CN2CCCC2)c1 (centres unmarked) [1e] | 62.5 µM (≈ 26.2 µg/mL) | 62.5 µM (≈ 26.2 µg/mL) | 0.06316 N/m | 16.2 µM (≈ 6.8 µg/mL) | 4.0258 | 3.6174 | 0.5584 | 2.0811 | 0.3183 | 1.4054 | 0.1478 | 0.7155 | −0.1454 | 0.5063 | −0.2956 | 4.3434 |  |  | 32.5 µM (≈ 13.6 µg/mL) | 
CCCCCOc1ccccc1NC(=O)OC(CN(CCC)CCC)CN1CCCC1 (centres unmarked) [1b] | 62.5 µM (≈ 27.1 µg/mL) | 125 µM (≈ 54.2 µg/mL) | 0.06366 N/m | 104 µM (≈ 45.1 µg/mL) | 4.0454 | 6.6904 | 0.8254 | 4.6302 | 0.6656 | 3.2092 | 0.5064 | 1.9235 | 0.2841 | 1.0479 | 0.0203 | 3.9834 |  |  | 52 µM (≈ 22.5 µg/mL) | 
CCCCCCCOc1cccc(NC(=O)OC(CN(CCC)CCC)CN2CCCCCC2)c1.O=C(O)C(=O)O (centres unmarked) [1l, 1-[2-[({[3-(hept-yloxy)phenyl]amino}carbonyl)oxy]-3-(dipropylammonio)propyl]azepanium oxalate] | 32 µM |  | 0.05853 N/m | 382 µM | 5.8966 | 30.4159 | 1.4831 | 16.4135 | 1.2152 | 9.1601 | 0.9619 | 4.2374 | 0.6271 | 2.5096 | 0.3996 | 5.5102 |  |  | 191 µM | MIC ([1]; 21-day cultivation, read-out: MIC MA 330/80 21-d): 62.5 µM
CCCCCCCOc1cccc(NC(=O)OC(CN(CCC)CCC)CN2CCCC2)c1.Cl.Cl (centres unmarked) [1h, 1-[2-[({[3-(heptyloxy)phenyl]amino}carbonyl)oxy]-3-(dipropylammonio)propyl]pyrrolidinium dichloride] |  |  | 0.05786 N/m |  | 5.5384 | 8.9557 | 0.9521 | 5.1988 | 0.7159 | 2.8609 | 0.4565 | 1.6188 | 0.2092 | 0.6091 | −0.2153 | 5.6830 | < 3.7 µM | 15 µM |  | MIC ([1]; Mycobacterium avium, ATCC25291, 336 h, read-out: MIC MA 330/80 14-d): 8 µM; MIC ([1]; Mycobacterium avium, ATCC25291, 504 h, read-out: MIC MA 330/80 21-d): 16 µM; MIC ([1]; Mycobacterium avium, ATCC25291, read-out: MIC MA 330/80): 16 µM; MIC ([5]; 21-day cultivation, 28 °C, read-out: MIC MM 21-d): <3.7 µM
